In PubChem BioAssay (NCI):
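Method: 48-hour compound exposure of cells in 96-well plates, five concentrations, linear interpolation of endpoints. GI50 marks 50% less growth. TGI: total growth inhibition.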

Columns and labels:
Test in all cases: NCI anticancer screen, dose series, 48 h
RPMI-8226 leukemia = system: RPMI-8226 leukemia
SR leukemia = system: SR leukemia
SF-268 CNS = system: SF-268 CNS
NCI-H522 lung = system: NCI-H522 lung
MDA-MB-468 breast = system: MDA-MB-468 breast
SK-OV-3 ovarian = system: SK-OV-3 ovarian
TK-10 renal = system: TK-10 renal
DU-145 prostate = system: DU-145 prostate
MCF7 breast = system: MCF7 breast
A498 renal = system: A498 renal
MOLT-4 leukemia = system: MOLT-4 leukemia
HCC-2998 colon = system: HCC-2998 colon
UO-31 renal = system: UO-31 renal
HOP-92 NSCLC = system: HOP-92 NSCLC
SN12C renal = system: SN12C renal
HT29 colon = system: HT29 colon
NCI-H460 lung = system: NCI-H460 lung
HOP-62 NSCLC = system: HOP-62 NSCLC
BT-549 breast = system: BT-549 breast
MALME-3M melanoma = system: MALME-3M melanoma
EKVX NSCLC = system: EKVX NSCLC
NCI-H23 lung = system: NCI-H23 lung
SNB-75 CNS = system: SNB-75 CNS
CAKI-1 renal = system: CAKI-1 renal
ACHN renal = system: ACHN renal
MDA-MB-435 = system: MDA-MB-435
SK-MEL-28 melanoma = system: SK-MEL-28 melanoma
U251 CNS = system: U251 CNS
RXF 393 renal = system: RXF 393 renal
T-47D breast = system: T-47D breast
OVCAR-4 ovarian = system: OVCAR-4 ovarian
A549 NSCLC = system: A549 NSCLC
HL-60(TB) leukemia = system: HL-60(TB) leukemia
SNB-19 CNS = system: SNB-19 CNS
SK-MEL-2 melanoma = system: SK-MEL-2 melanoma
UACC-257 melanoma = system: UACC-257 melanoma
786-0 renal = system: 786-0 renal
HCT-15 colon = system: HCT-15 colon
IGROV1 ovarian = system: IGROV1 ovarian
KM12 colon = system: KM12 colon
M14 melanoma = system: M14 melanoma
NCI/ADR-RES ovarian = system: NCI/ADR-RES ovarian
MDA-MB-231 breast = system: MDA-MB-231 breast
OVCAR-5 ovarian = system: OVCAR-5 ovarian
HS 578T breast = system: HS 578T breast
UACC-62 melanoma = system: UACC-62 melanoma
SK-MEL-5 melanoma = system: SK-MEL-5 melanoma
SF-539 CNS = system: SF-539 CNS
LOX IMVI melanoma = system: LOX IMVI melanoma
SF-295 CNS = system: SF-295 CNS
K-562 leukemia = system: K-562 leukemia
NCI-H226 lung = system: NCI-H226 lung
PC-3 prostate = system: PC-3 prostate
OVCAR-3 ovarian = system: OVCAR-3 ovarian
SW-620 colon = system: SW-620 colon
OVCAR-8 ovarian = system: OVCAR-8 ovarian
HCT-116 colon = system: HCT-116 colon
CCRF-CEM leukemia = system: CCRF-CEM leukemia
COLO 205 colon = system: COLO 205 colon

S=C(NCCc1ccccc1)Nc1ccc(OCc2nc3ccc(Cl)cc3[nH]2)cc1
GI50 (RPMI-8226 leukemia): 4.54 µM | TGI (RPMI-8226 leukemia): 45.5 µM | GI50 (SR leukemia): 2.2 µM | TGI (SR leukemia): 6.99 µM | GI50 (SF-268 CNS): 11.1 µM | TGI (SF-268 CNS): 27.1 µM | GI50 (NCI-H522 lung): 2.22 µM | TGI (NCI-H522 lung): 7.02 µM | GI50 (MDA-MB-468 breast): 3.78 µM | TGI (MDA-MB-468 breast): 17.4 µM | GI50 (SK-OV-3 ovarian): 14.2 µM | TGI (SK-OV-3 ovarian): 27.9 µM | GI50 (TK-10 renal): 13.8 µM | TGI (TK-10 renal): 27.3 µM | GI50 (DU-145 prostate): 12 µM | TGI (DU-145 prostate): 25 µM | GI50 (MCF7 breast): 3.14 µM | TGI (MCF7 breast): 15.5 µM | GI50 (A498 renal): 10.4 µM | TGI (A498 renal): 22.7 µM | GI50 (MOLT-4 leukemia): 2.46 µM | TGI (MOLT-4 leukemia): 7.51 µM | GI50 (HCC-2998 colon): 6.1 µM | TGI (HCC-2998 colon): 20.4 µM | GI50 (UO-31 renal): 3.37 µM | TGI (UO-31 renal): 16 µM | GI50 (HOP-92 NSCLC): 3.52 µM | TGI (HOP-92 NSCLC): 17 µM | GI50 (SN12C renal): 6.28 µM | TGI (SN12C renal): 20.1 µM | GI50 (HT29 colon): 9.67 µM | TGI (HT29 colon): 24.4 µM | GI50 (NCI-H460 lung): 4.31 µM | TGI (NCI-H460 lung): 17.3 µM | GI50 (HOP-62 NSCLC): 14 µM | TGI (HOP-62 NSCLC): 28.7 µM | GI50 (BT-549 breast): 10.4 µM | TGI (BT-549 breast): 22.5 µM | GI50 (MALME-3M melanoma): 12.5 µM | TGI (MALME-3M melanoma): 25.2 µM | GI50 (EKVX NSCLC): 7.97 µM | TGI (EKVX NSCLC): 21.2 µM | GI50 (NCI-H23 lung): 10.9 µM | TGI (NCI-H23 lung): 23.7 µM | GI50 (SNB-75 CNS): 1.63 µM | TGI (SNB-75 CNS): 14.9 µM | GI50 (CAKI-1 renal): 4.32 µM | TGI (CAKI-1 renal): 17.7 µM | GI50 (ACHN renal): 7.74 µM | TGI (ACHN renal): 20.4 µM | GI50 (MDA-MB-435): 4.36 µM | TGI (MDA-MB-435): 17.6 µM | GI50 (SK-MEL-28 melanoma): 12.6 µM | TGI (SK-MEL-28 melanoma): 25.3 µM | GI50 (U251 CNS): 13.1 µM | TGI (U251 CNS): 27.1 µM | GI50 (RXF 393 renal): 4.07 µM | TGI (RXF 393 renal): 17.1 µM | GI50 (T-47D breast): 5.61 µM | TGI (T-47D breast): 25.3 µM | GI50 (OVCAR-4 ovarian): 7 µM | TGI (OVCAR-4 ovarian): 23.9 µM | GI50 (A549 NSCLC): 12.6 µM | TGI (A549 NSCLC): 31.5 µM | GI50 (HL-60(TB) leukemia): 1.26 µM | TGI (HL-60(TB) leukemia): 4.35 µM | GI50 (SNB-19 CNS): 11.6 µM | TGI (SNB-19 CNS): 23.8 µM | GI50 (SK-MEL-2 melanoma): 13.1 µM | TGI (SK-MEL-2 melanoma): 26.2 µM | GI50 (UACC-257 melanoma): 13.7 µM | TGI (UACC-257 melanoma): 27.4 µM | GI50 (786-0 renal): 7.67 µM | TGI (786-0 renal): 21.4 µM | GI50 (HCT-15 colon): 4.9 µM | TGI (HCT-15 colon): 18 µM | GI50 (IGROV1 ovarian): 6.26 µM | TGI (IGROV1 ovarian): 19.9 µM | GI50 (KM12 colon): 10.5 µM | TGI (KM12 colon): 23.6 µM | GI50 (M14 melanoma): 9.53 µM | TGI (M14 melanoma): 22 µM | GI50 (NCI/ADR-RES ovarian): 7.15 µM | TGI (NCI/ADR-RES ovarian): 25.5 µM | GI50 (MDA-MB-231 breast): 5.75 µM | TGI (MDA-MB-231 breast): 19.4 µM | GI50 (OVCAR-5 ovarian): 11.5 µM | TGI (OVCAR-5 ovarian): 23.6 µM | GI50 (HS 578T breast): 8.41 µM | TGI (HS 578T breast): 31.9 µM | GI50 (UACC-62 melanoma): 7.94 µM | TGI (UACC-62 melanoma): 20.8 µM | GI50 (SK-MEL-5 melanoma): 12.7 µM | TGI (SK-MEL-5 melanoma): 25.7 µM | GI50 (SF-539 CNS): 8.77 µM | TGI (SF-539 CNS): 20.9 µM | GI50 (LOX IMVI melanoma): 4.02 µM | TGI (LOX IMVI melanoma): 16.1 µM | GI50 (SF-295 CNS): 7.08 µM | TGI (SF-295 CNS): 21.7 µM | GI50 (K-562 leukemia): 3.04 µM | TGI (K-562 leukemia): 20 µM | GI50 (NCI-H226 lung): 12.9 µM | TGI (NCI-H226 lung): 35.5 µM | GI50 (PC-3 prostate): 6.8 µM | TGI (PC-3 prostate): 22.9 µM | GI50 (OVCAR-3 ovarian): 3.51 µM | TGI (OVCAR-3 ovarian): 17.1 µM | GI50 (SW-620 colon): 9.72 µM | TGI (SW-620 colon): 22.7 µM | GI50 (OVCAR-8 ovarian): 11.9 µM | TGI (OVCAR-8 ovarian): 30.4 µM | GI50 (HCT-116 colon): 4.65 µM | TGI (HCT-116 colon): 17.6 µM | GI50 (CCRF-CEM leukemia): 3.06 µM | TGI (CCRF-CEM leukemia): 14.8 µM | GI50 (COLO 205 colon): 12.4 µM | TGI (COLO 205 colon): 28 µM
